Assay results: patent US20220024905A1, “CRYSTALLINE FORM OF PROPANAMIDE DERIVATIVE AND PREPARATION METHOD THEREFOR” (NHWA PHARMA. CORPORATION, priority 2018, published 2022)
Like-named read-outs stand apart in the source and are kept apart here.

How the values were obtained:
[1] = Pharmacokinetics of Crystal Form A and Crystal Form B capsules in beagle dogs; format: in vivo
Procedure: There were 12 beagle dogs for the experiment, half male and half female, weighing 11.0-14.1 kg, provided by the Teaching and Experimental Ground of Agricultural College of Shanghai Jiao Tong University. The animals were raised in single cage, and the feeding amount can be adjusted according to the weight or feed intake of the animals. The animals can drink water freely, with 12/12 h light/dark cycle adjustment, constant temperature of 23±1° C., humidity of 50-60%. On the day of administration, the experimental animals were fasted overnight before administration. […] The animals were weighed on the day of administration, and the dosage was determined according to their body weight. The above-mentioned grouped beagle dogs were administered according to the method in Table 5 below. [table] 1 mL of whole blood was collected from the cephalic vein at blood collection time points of 0.0830, 0.250, 0.500, 1.00, 2.00, 4.00, 8.00, 24.00 h after administration. […] The analytical method was performed by liquid chromatography tandem triple quadrupole mass spectrometry (LC MS/MS). […] The peak concentration (Cmax) and the peak time (Tmax) were obtained from the plasma concentration-time curve graph. The log-linear trapezoidal method (see: Gabrielsson J, Weiner D. Pharmacokinetic and pharmacodynamic data analysis: concepts and applications[M]. CRC Press, 2001, pages 141-146) was used to calculate the following parameters: elimination phase half-life (T1/2), mean retention time extrapolated from zero time point to infinity (MRT0-inf), mean retention time from zero time point to the last detectable concentration time point (MRT0-last), the area under the plasma concentration-time curve from the zero time point to the last detectable concentration time point (AUC0-last), and the area under the plasma concentration-time curve extrapolated from the zero time point to infinity (AUC0-inf). The experimental data was expressed as the mean (Mean)±standard deviation (S.D.). The excel software t-test was used for statistical comparison.

[2] = Mechanical stress of the crystal form (ball milling, PXRD); format: physicochemical; conditions: for Crystal form after ball milling: ball mill 400 r/min, PXRD, duplicate mortars; for change of crystal form under ball milling pressure: ball milled for 30 min, 4 h and 6 h
Procedure: Samples were taken when the ball milled at 30 min, 4 h and 6 h respectively, and then for PXRD test. The change of crystal form was observed, and the experiment was carried out parallelly in duplicate.

[3] = Crystalline stability: stability factors test at high humidity, high temperature and light (PXRD and HPLC content); format: physicochemical; conditions: for Content (%): HPLC content (w/w, %); for Crystal form: PXRD; for content (all conditions) / morphology of crystal form: high humidity, high temperature and light, each for 10 days
Excerpt: The samples were taken at day 5 and day 10 respectively for PXRD (polycrystalline X ray diffraction) detection and HPLC content (w/w, %) determination, and the results were compared with that of day 0.

[4] = Day 10 at high humidity (R.H. 92.5%)
[5] = Day 10 at high temperature (60° C.)
[6] = beagle dogs, PO 5 mg/kg, capsule, n = 6
[7] = beagle dogs, PO 5 mg/kg, capsule, x ± s, n = 6

Row | Crystal form after ball milling ([2]; 30 min) | Crystal form after ball milling ([2]; 4 h) | Crystal form after ball milling ([2]; 6 h) | change of crystal form under ball milling pressure [2] | Content (%) ([3]; Day 0) | Crystal form ([3]; Day 0) | Content (%) [3, 4] | Crystal form [3, 4] | Content (%) [3, 5] | Crystal form [3, 5] | Content (%) ([3]; Day 10 at light (4500±500 lx)) | Crystal form ([3]; Day 10 at light (4500±500 lx)) | content (all conditions) [3] | morphology of crystal form [3] | SMILES | further results
1 | Crystal Form A | Crystal Form A | Crystal Form A | its crystal form did not change | 97.21% | Crystal Form A | 97.18% | Crystal Form A | 97.15% | Crystal Form A | 97.13% | Crystal Form A | ≥ 97.0% | stable | CN1CCc2ccc(OCCCN3CCC(c4noc5cc(F)ccc45)CC3)cc2C1=O [Crystal Form A, 7-(3-(4-(6-fluorobenzo[d]isoazol-3-yl)piperidin-1-yl)propoxy)-2-methyl-3,4-dihydroisoquinolin-1(2H)-one] | half-life ([1]; both sexes, beagle, dog, plasma, po, 5 mg/kg, beagle dogs, PO 5 mg/kg, capsule, n = 6): 2.9 h; Tmax ([1]; both sexes, beagle, dog, plasma, po, 5 mg/kg, beagle dogs, PO 5 mg/kg, capsule, n = 6, read-out: Tmax): 2.6 h; AUC(0-t) ([1]; both sexes, beagle, dog, plasma, po, 5 mg/kg, beagle dogs, PO 5 mg/kg, capsule, x ± s, n = 6): 2840 ± 77.8 ng·h/mL; AUC0-inf ([1]; both sexes, beagle, dog, plasma, po, 5 mg/kg, beagle dogs, PO 5 mg/kg, capsule, x ± s, n = 6, read-out: AUC0-inf): 2990 ± 82 ng·h/mL; Cmax ([1]; both sexes, beagle, dog, plasma, po, 5 mg/kg, beagle dogs, PO 5 mg/kg, capsule, x ± s, n = 6, read-out: Cmax): 645 ± 37.2 ng/mL; bioavailability ([1]; both sexes, beagle, dog, plasma, po, 5 mg/kg, read-out: relative bioavailability (F)): 137%
2 | Crystal Form B | Crystal Form B + | Crystal Form B + | its crystal form changed significantly | 96.70% | Crystal Form B | 96.67% | Crystal Form B + | 96.65% | Crystal Form B + | 96.69% | Crystal Form B + | ≥ 96.0% | could not remain stable | CN1CCc2ccc(OCCCN3CCC(c4noc5cc(F)ccc45)CC3)cc2C1=O [Crystal Form B, 7-(3-(4-(6-fluorobenzo[d]isoazol-3-yl)piperidin-1-yl)propoxy)-2-methyl-3,4-dihydroisoquinolin-1(2H)-one] | T1/2 [1, 6]: 2.1 h; Tmax [1, 6]: 1.7 h; AUC0-inf [1, 7]: 2186 ± 82.1 ng·h/mL; AUC0-last [1, 7]: 2039 ± 81.9 ng·h/mL; Cmax [1, 7]: 426 ± 32.75 ng/mL
